{
  "source": "paper PMC4052307",
  "about": "“Identification of Plakortide E from the Caribbean Sponge Plakortis halichondroides as a Trypanocidal Protease Inhibitor using Bioactivity-Guided Fractionation” (Marine Drugs, 2014)",
  "key": {"J774.1 macrophages": {"tested_on": "J774.1 macrophages", "conditions": "at 100 μM"}, "cathepsin L": {"biological_target": "cathepsin L (Homo sapiens, UniProt P07711)", "sequence (P07711 114-333)": "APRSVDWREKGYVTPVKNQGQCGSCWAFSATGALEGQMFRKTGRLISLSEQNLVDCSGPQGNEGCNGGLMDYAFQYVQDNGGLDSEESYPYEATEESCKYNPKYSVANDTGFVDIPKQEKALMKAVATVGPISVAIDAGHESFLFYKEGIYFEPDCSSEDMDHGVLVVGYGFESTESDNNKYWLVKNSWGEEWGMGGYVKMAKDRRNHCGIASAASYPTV", "assay": "cathepsin L enzyme assay", "format": "biochemical"}, "rhodesain [1]": {"biological_target": "T1, rhodesain (Trypanosoma brucei rhodesiense, UniProt Q95PM0)", "T1 sequence (Q95PM0 entry or part of it)": "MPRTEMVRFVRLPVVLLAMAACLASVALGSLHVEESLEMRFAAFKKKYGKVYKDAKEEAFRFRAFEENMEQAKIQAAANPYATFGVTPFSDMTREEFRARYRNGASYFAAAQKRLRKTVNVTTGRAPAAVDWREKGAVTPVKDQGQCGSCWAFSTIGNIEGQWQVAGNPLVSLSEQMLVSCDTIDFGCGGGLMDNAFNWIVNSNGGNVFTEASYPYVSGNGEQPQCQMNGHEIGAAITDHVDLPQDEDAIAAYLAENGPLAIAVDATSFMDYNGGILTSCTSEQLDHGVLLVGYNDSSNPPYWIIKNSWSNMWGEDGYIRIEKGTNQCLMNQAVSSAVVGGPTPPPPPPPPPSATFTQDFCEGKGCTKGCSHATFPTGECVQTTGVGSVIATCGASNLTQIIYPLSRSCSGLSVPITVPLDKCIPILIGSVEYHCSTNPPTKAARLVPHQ", "assay": "rhodesain dilution assay (reversibility)", "format": "biochemical", "conditions": "preincubated 1 h with 10 fold IC50, then diluted 100 fold", "procedure": "In order to study the inhibition mechanism of plakortide E, enzyme assays with various inhibitor and substrate concentrations were performed with cathepsin B to determine whether the inhibition is competitive with respect to the substrate. The IC50 values for cathepsin B were determined at three different substrate concentrations (50, 100, 200 μM). […] Therefore, we determined the time-dependency of inhibition by measuring IC50 values in correlation to incubation time of enzyme with the inhibitor added, prior to substrate addition. […] To address whether the inhibition is reversible or irreversible, further kinetic studies were performed as described by Copeland [19]. Dilution assays were performed and compared with K11777 [20], an irreversible vinylsulfone-based inhibitor of rhodesain. The enzyme rhodesain (100 fold concentration as used in the normal enzyme assays) was preincubated with the 10 fold IC50 concentration of the compound for one hour, which allows the formation of enzyme-inhibitor complexes and leads to total block of enzyme activity. […] In case of irreversible inhibition, dissociation of the complex cannot occur and no enzyme activity will be detected. […] This indicates a reversible inhibition by plakortide E. In summary, plakortide E was determined to be a non-competitive, reversible, inhibitor of cysteine proteases, in case of rhodesain slow-binding was observed."}, "[2]": {"tested_on": "sarcoplasmic reticulum (SR) Ca2+ ATPase", "set-up": "method as in doi:10.1016/0040-4020(95)00856-X", "conditions": "cited from earlier work"}, "SARS PLpro": {"tested_on": "SARS PLpro", "format": "biochemical, SARS coronavirus", "conditions": "at 100 μg/mL (285.71 μM)"}, "rhodesain [3]": {"biological_target": "T1, rhodesain", "assay": "rhodesain enzyme assay", "format": "biochemical"}, "[4]": {"tested_on": "trypomastigote forms of Trypanosoma brucei", "assay": "parasite growth assay against T. brucei", "format": "cell-based", "conditions": "read-out: trypanocidal activity IC50"}, "cathepsin B": {"biological_target": "cathepsin B (Homo sapiens, UniProt P07858)", "assay": "cathepsin B enzyme assay", "format": "biochemical"}, "Plasmodia": {"tested_on": "Plasmodia", "conditions": "cited from earlier work"}, "Candida albicans": {"tested_on": "Candida albicans", "assay": "assay on C. albicans", "format": "cell-based"}, "[5]": {"tested_on": "Leishmania major promastigotes", "assay": "assay on L. major promastigotes", "format": "cell-based"}},
  "note": "Several values for one entry are separate records, joined by “and”; a condition that tells them apart may be missing. Identical values can stand only once. Like-named read-outs stand apart in the source and are kept apart here.",
  "data": [
    {"compound": "CC/C=C/[C@H](CC)C/C(C)=C/[C@@]1(CC)C[C@](/C=C/C(=O)O)(CC)OO1", "note": "[plakortide E]", "values": [
      {"measurement": "cytotoxic effects against macrophages", "setting": "J774.1 macrophages", "result": "no cytotoxic effects"},
      {"measurement": "IC50", "setting": "cathepsin L; [S] = 6.25 μM", "result": "106 µM and 105 µM"},
      {"measurement": "inhibition of cathepsin L", "setting": "cathepsin L; at 100 μg/mL (285.71 μM)", "result": "Inhibition"},
      {"measurement": "reactivation of the enzyme (enzyme activity after dilution)", "setting": "rhodesain [1]", "result": "about 50%"},
      {"measurement": "SR Ca2+ ATPase activity", "setting": "[2]", "result": "stimulate"},
      {"measurement": "inhibition of SARS PLpro", "setting": "SARS PLpro", "result": "Inhibition"},
      {"measurement": "IC50", "setting": "rhodesain [3]; 5 min incubation of enzyme with inhibitor prior to substrate addition, read-out: IC50 rhodesain, time-dependency (converted)", "result": 257, "unit": "µM"},
      {"measurement": "IC50", "setting": "rhodesain [3]; 30 min incubation of enzyme with inhibitor prior to substrate addition, read-out: IC50 rhodesain, time-dependency (converted)", "result": 205, "unit": "µM"},
      {"measurement": "IC50", "setting": "rhodesain [3]; 60 min incubation of enzyme with inhibitor prior to substrate addition, read-out: IC50 rhodesain, time-dependency (converted)", "result": 77, "unit": "µM"},
      {"measurement": "IC50", "setting": "rhodesain [3]; [S] = 30.0 μM, read-out: IC50 rhodesain (converted)", "result": "124 µM and 126 µM"},
      {"measurement": "inhibition of rhodesain", "setting": "rhodesain [3]; at 100 μg/mL (285.71 μM)", "result": "Inhibition"},
      {"measurement": "inhibition mechanism, rhodesain", "setting": "rhodesain [3]; enzyme kinetic studies", "result": "non-competitive, slowly-binding, reversible inhibitor"},
      {"measurement": "IC50", "setting": "[4]; after 48 h", "result": 5, "unit": "µM"},
      {"measurement": "IC50", "setting": "[4]; after 72 h", "result": 5, "unit": "µM"},
      {"measurement": "inhibition mechanism, cathepsin B", "setting": "cathepsin B; IC50 at three substrate concentrations", "result": "non-competitive inhibition"},
      {"measurement": "inhibition of cathepsin B", "setting": "cathepsin B; at 100 μg/mL (285.71 μM)", "result": "Inhibition"},
      {"measurement": "IC50", "setting": "cathepsin B; substrate concentration 50 μM", "result": "82.7 µM and 82 µM"},
      {"measurement": "IC50", "setting": "cathepsin B; substrate concentration 100 μM", "result": "74.2 µM and 73 µM"},
      {"measurement": "IC50", "setting": "cathepsin B; substrate concentration 200 μM", "result": 103, "unit": "µM"},
      {"measurement": "activity against Plasmodia", "setting": "Plasmodia", "result": "inactive"},
      {"measurement": "activity against Candida", "setting": "Candida albicans", "result": "No activity"},
      {"measurement": "activity against Leishmania", "setting": "[5]", "result": "did not show activity"}
    ]},
    {"compound": "CN1CCN(C(=O)N[C@@H](Cc2ccccc2)C(=O)N[C@H](/C=C/S(=O)(=O)c2ccccc2)CCc2ccccc2)CC1", "note": "[K11777, reference compound]", "values": [
      {"measurement": "reactivation of the enzyme (enzyme activity after dilution)", "setting": "rhodesain [1]", "result": "no enzyme activity was detected"}
    ]},
    {"compound": "plakortide Q", "values": [
      {"measurement": "activity against Plasmodia", "setting": "Plasmodia", "result": "active"}
    ]},
    {"compound": "dihydroplakortin", "values": [
      {"measurement": "activity against Plasmodia", "setting": "Plasmodia", "result": "active"}
    ]},
    {"compound": "CC/C=C/C(CC)C[C@@]1(C)C[C@@H](CC)[C@H](CC(=O)OC)OO1", "note": "(stereo partly shown) [3-epiplakortin]", "values": [
      {"measurement": "activity against Plasmodia", "setting": "Plasmodia", "result": "active"}
    ]},
    {"compound": "CC/C=C/[C@H](CC)C[C@@]1(C)C[C@@H](CC)[C@@H](CC(=O)OC)OO1", "note": "[plakortin]", "values": [
      {"measurement": "activity against Plasmodia", "setting": "Plasmodia", "result": "active"}
    ]},
    {"compound": "CC/C=C/[C@H](CC)C/C=C/[C@@]1(CC)C[C@H](CC)[C@H](CC(=O)O)OO1", "note": "[plakortide M]", "values": [
      {"measurement": "activity against Plasmodia", "setting": "Plasmodia", "result": "active"}
    ]}
  ]
}
